Measured values as given in patent US7906484B2, “Complex for transferring an anionic substance into a cell” (Alnylam Pharmaceuticals, Inc., priority 2006, dated 2011).

Experiments:
[1] = test system: ENaC-alpha mRNA in H441 cells; test: siRNA delivery into H441 cells, ENaC-alpha mRNA quantified by bDNA assay; type: cell-based, human; settings: AD-7007
Description: In order to test the potential of adding Histidine residues for improving the cross-membrane transport properties of peptides, we synthesized a modified ppTG20, termed ppTGHis herein, wherein 4 consecutive Histidine moieties were added to the C-terminus of ppTG20. We then compared the transport of siRNAs complexed with ppTG20 or ppTGHis into H441 cells, as evaluated by the ability of siRNAs to inhibit the expression of a gene constitutively expressed in H441 cells, ENaC-alpha. […]
For transfection with peptide/siRNA complexes, H441 cells were seeded at 1.5×10^4 cells/well on 96-well plates (Greiner Bio-One GmbH, Frickenhausen, Germany) in 75 μl of growth medium. […] Thereafter, the cells were lysed by adding 50 μl of lysis mixture (content of the QuantiGene bDNA-kit from Panomics, Inc., Fremont, USA) to each well containing 100 μl of growth medium at 53° C. for 30 min, and ENaC mRNA levels were subsequently quantified with the Quantigene Explore Kit (Panomics, Inc., Dumbarton Circle Fremont, USA, cat. No. QG-000-02) according to the manufacturer's protocol. Finally, chemoluminescence was measured in a Victor2-Light (Perkin Elmer, Wiesbaden, Germany) as RLUs (relative light units) and values obtained with the hENaC probeset were normalized to the respective GAPDH values for each well (probe sequences shown in Table 2 and Table 3). […]

[2] = test system: E6AP mRNA in HCT116 cells; test: siRNA AD-8724 delivery into HCT116 cells, inhibition of E6AP mRNA expression by bDNA assay; type: cell-based, human; settings: for capacity for cross membrane transport of siRNA (quantity not given): 37° C., siRNA/peptide conc. 250 nM/2.5 μM
Description: All further experiments were carried out using HCT116 cells and inhibition of E6AP expression as readout.
HCT116-cells were obtained from the American Type Culture Collection (ATCC# CCL-247). They were cultured in McCoy's 5A medium (Biochrom AG, Berlin, Germany, Cat.# F1015) containing 10% fetal calf serum (FCS; Biochrom AG, Berlin, Germany, Cat.# S0115) and 2 mM L-Glutamin (Biochrom AG, Berlin, Germany, Cat.#: K0283) (standard growth medium). For incubation with peptide/siRNA, complexes, the medium was replaced by serum-free McCoy's 5A medium containing 2 mM L-Glutamin (serum free medium). After incubation with complexes for 4 h, McCoy's 5A medium containing 30% fetal calf serum and 2 mM L-Glutamin (triple FCS medium) was added to restore an overall 10% FCS in the medium.
The E6AP-specific siRNA denoted AD-8724 herein was used, having the following sequences: antisense strand: 5′-ucacauuccacguuaggugTsT-3′ (SEQ ID NO:51), sense strand 5′-caccuaacguggaaugugaTsT-3′; (SEQ ID NO:52; lower case letters: ribonucleotides; s: phosphorothioate backbone linkage). As a negative control, an siRNA specific for eGFP, denoted AD-5107 herein, was used, having the following sequences: antisense strand: 5′-aagucgugcugcuucauguggOMesuOMesc-3′ (SEQ ID NO:19), sense strand 5′-[…]-3′ (SEQ ID NO:18; lower case letters: ribonucleotides; subscript OMe: 2′-O-methyl-ribonucleotide; s: phosphorothioate backbone linkage). In addition to the non-specific control siRNA AD-5107, mock transfected cells treated with standard growth medium only were used as negative controls. As a positive control, AD-8724 was transfected into the cells using Lipofectamine2000™ (Invitrogen, Karlsruhe, Germany, Cat. No. 11668-019). As a further control, AD-5107 was transfected into cells using Lipofectamine2000™. All assays were performed in quadruplicates.
SiRNA/peptide complexes were prepared by mixing a solution of the siRNA in deionized water with a solution of the peptide in deionized water at the appropriate concentrations to give the desired ratio of siRNA/peptide at the desired concentration of the complex. The mixture was incubated at room temperature for 30 min and kept at 4° C. until use, and used within 24 h.
For transfections with siRNA/peptide complexes, 1.5×10^5 HCT116-cells per well in 150 μl standard growth medium were seeded into polystyrene 96 well plates and grown for 24 h at 37° C. in an atmosphere containing 5% CO2. The medium was removed by aspiration, and 90 μl serum-free medium and 10 μl of siRNA/peptide complex solution were added. Cells were incubated for 4 h at 37° C./5% CO2, 50 μl triple FCS medium were added, and the cells incubated for another 20 h under identical conditions. Subsequently, E6AP mRNA content was determined as described below.
For Lipofectamine2000™ transfections, 0.5 μl Lipofectamine2000™ were mixed with 12 μl OptiMem™ (Invitrogen, Karlsruhe, Germany, Cat. No. 11058-021) and incubated for 15 min. 1 μl of a 5 μM solution of the respective siRNA in PBS (Biochrom AG, Berlin, Germany, Cat-No: L182-05) were added to 11.5 μl OptiMeM™, mixed with the Lipofectamine2000™/OptiMem™ solution, and incubated for further 15 min. 1.5×10^5 HCT116-cells per well in 150 μl standard growth medium were grown for 24 h as described above, the growth medium removed from the cells by aspiration, and 75 μl fresh standard growth medium and the 25 μl of the siRNA/Lipofectamine2000™ mix were added to the well, to give a final siRNA concentration of 50 nM. The cells were incubated for 24 h at 37° C./5% CO2 and E6AP mRNA concentration determined.
The QuantiGene™ bDNA-kit from Panomics, Inc., Fremont, USA, was used according to manufacturer's instructions. Briefly, cells were lysed by adding 50 μl of Lysis Mixture (from QuantiGene bDNA-kit) to each well and incubation at 53° C. for 1 h. […]

eGFP-mRNA = test: Influence of peptide/siRNA ratio on siRNA activity in HCT116 cells; type: cell-based; settings: 250 nM siRNA
Description: The optimal ratio of (peptide):(anionic substance) for complex formation, was determined in section 3 above to lie in the range of 8:1 to 13:1 by titrating a fixed concentration of the anionic substance with increasing amounts of the peptide, and monitoring complex formation by electrophoresis of the mixture. To further validate and possibly narrow down the optimum ratio of peptide/anionic substance, an assay with a functional readout was performed. HCT116 cells were incubated with siRNA complexes as described above at concentrations such that the amount of siRNA in the incubation mixture corresponds to a 250 nM concentration of the siRNA, and the peptide/siRNA ratio was 8:1, 10:1, 12:1, or 14:1.

[3] = test system: E6AP mRNA in HCT116 cells; test: siRNA AD-8724 delivery into HCT116 cells, inhibition of E6AP mRNA expression by bDNA assay; type: cell-based, human; settings: 4° C., siRNA/peptide conc. 250 nM/2.5 μM
[4] = AD-8724, siRNA/peptide conc. 25 nM/250 nM
[5] = AD-8724, siRNA/peptide conc. 250 nM/2.5 μM
[6] = AD-8724, siRNA/peptide conc. 1 μM/10 μM
[7] = siRNA AD-8724 250 nM, molar peptide/siRNA ratio 12.5:1

Sequence	transfection efficiency and resulting siRNA activity compared with Lipofectamine [1]	transfection efficiency and resulting siRNA activity relative to ppTG20 [1]	capacity for cross membrane transport of siRNA (quantity not given) [2]	remaining E6AP mRNA (in % of mock) [2, 4]	remaining E6AP mRNA (in % of mock) [2, 5]	remaining E6AP mRNA (in % of mock) [2, 6]	remaining E6AP mRNA (in % of mock) [2, 7]	Remaining eGFP-mRNA in % of mock-transfected controls (eGFP-mRNA; peptide/siRNA ratio 8:1)	Remaining eGFP-mRNA in % of mock-transfected controls (eGFP-mRNA; peptide/siRNA ratio 10:1)	Remaining eGFP-mRNA in % of mock-transfected controls (eGFP-mRNA; peptide/siRNA ratio 12:1)	Remaining eGFP-mRNA in % of mock-transfected controls (eGFP-mRNA; peptide/siRNA ratio 14:1)	capacity for cross membrane transport of siRNA (quantity not given) [3]
GLFRALLRLLRSLWRLLLRAHHHH [ppTGHis, ppTG20 with 4 histidines added to the C-terminus]	comparable to that of Lipofectamine™	approximately 10 fold										
HLFRALLRLLRHLWRLLLRA [AP-10]			13 ± 8%	98 ± 8%	28 ± 4%	17 ± 1%	41 ± 21%	42 ± 3%	24 ± 4%	24 ± 2%	32 ± 4%	81 ± 16%
RLFRALLRLLRSLWRLLRRA [AP-4]			30 ± 5% RT	96 ± 24%	49 ± 11%	37 ± 9%	34 ± 6%	23 ± 6%	18 ± 6%	52 ± 6%	43 ± 4%	56 ± 4%
